Data on two compounds can be found in patent US20040213751A1, “Augmentation of pyrithione activity or a polyvalent metal salt of pyrithione activity by zinc-containing layered material” (priority 2003, published 2004).

For this assay, the system named is Malassezia furfur (ATCC 14521). The assay is described as follows: Minimum inhibitory concentration (MIC) of ZPT in mDixon agar, with and without augmenting material. Format: cell-based. An excerpt:
In some cases, materials can augment the activity of antifungal actives. As used herein, the term augmentation is intended to mean enhancement of the antifungal activity of a ZPT-containing composition by the augmenting material to an extent sufficient to permit the use of a lower amount of ZPT without reducing the antifungal inhibition provided by the composition, as compared to the antifungal inhibition that is provided by an otherwise-identical ZPT-containing composition that is free of the augmenting material. Augmenting agents are generally specific to the material being augmented, forming a unique combination and often because there is a specific chemical or biological mechanism required to achieve the augmentation effect. ^1 The Minimum Inhibitory Concentration is indicative of anti-fungal efficacy. Generally, the lower the value of the composition, the better its anti-fungal efficacy, due to increased inherent ability of the anti-dandruff agent to inhibit the growth of microorganisms.
An “augmentation factor” is defined, which is the ratio of the MIC with and without an augmenting agent (at a specified concentration): [formula]
Dilutions of solubilized anti-microbial active were then added to test tubes containing molten mDixon agar. M. furfur inoculum was added to each tube of molten agar, the tube vortexed, and the contents poured into separate sterile petri dishes. […] The lowest tested dilution of anti-microbial active that yields no growth is defined as the Minimal Inhibitory Concentration (MIC).
1) Malassezia furfur was grown in a 250 ml Erlenmeyer flask containing 100 mil “mDIXON” medium at 320 rpm and 30° C. until turbid.
2) Selected dilutions were prepared using an appropriate dilution series, of the anti-microbial active or combination in solvent, which allowed the sample active to be solubilized prior to addition to the final test agar. For each concentration of the ZPT samples, the solvent was “DMSO”; for other samples, the solvent was water or “DMSO” or other suitable solvent.
3) 0.25 ml dilutions of anti-microbial active were added to test tubes containing 9.5 ml molten “mDIXON” agar (held at 45° C. in a water bath).
4) 0.25 M. furfur inoculum (adjusted to 5×10^5 cfu/ml by direct count) was added to each test tube of molten agar.
5) Each tube was vortexed, and the contents poured into separate petri dishes.
6) After the agar solidified, the plates inverted and incubated at 30° for 5 days.
7) The plates were then observed for visible M. furfur growth.

In the case of `[O-]n1ccccc1=S.[O-]n1ccccc1=S.[Zn+2]` [ZPT, zinc salt of 1-hydroxy-2-pyridinethione], the MIC of ZPT alone (Malassezia furfur, mDixon agar, 30° for 5 days, no augmenting material) stood at 8 ppm.
As to Zinc Stearate, the “Augmentation Benefit” value (5 ppm augmenting material, effective agent has augmentation factor greater than 1) is listed as “No”. Further, the MIC of ZPT with 5 ppm augmenting material (Malassezia furfur, mDixon agar, 30° for 5 days, 5 ppm of the named augmenting material) came out at 8 ppm. Moreover, the “Augmentation Factor” value (ratio of the MIC of ZPT without and with 5 ppm augmenting material) worked out at 1.0.
